According to patent US6608082B1, “Treatment of erectile dysfunction using isoquinoline compound melanocortin receptor ligands” (Lion Bioscience AG, priority 1998, dated 2003):
Read-outs that look alike come from different tables or passages of the source. One block for each compound: values may come before it.

Legend:
MCR-4 = target: T1, MCR-4 (Homo sapiens, UniProt P32245); assay: Melanocortin receptor binding assay, competition with 125I-HP 467, HEK 293 cells expressing hMCR-4; conditions: for IC50: read-out: MC-4 IC50
T1 construct: expressed in transfected cells; host or cells: HEK 293
T1 sequence (P32245 whole entry): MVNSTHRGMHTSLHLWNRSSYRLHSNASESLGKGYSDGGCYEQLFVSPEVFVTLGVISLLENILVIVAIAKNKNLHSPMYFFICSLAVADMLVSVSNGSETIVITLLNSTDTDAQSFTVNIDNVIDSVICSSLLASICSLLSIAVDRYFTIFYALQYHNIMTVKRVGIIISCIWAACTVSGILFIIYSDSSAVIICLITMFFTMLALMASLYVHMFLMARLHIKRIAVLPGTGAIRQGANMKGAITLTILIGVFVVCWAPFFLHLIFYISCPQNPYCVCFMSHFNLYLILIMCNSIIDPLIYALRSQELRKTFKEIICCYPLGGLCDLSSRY
In short: (§1)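 Test compounds compete on intact HEK 293 cells carrying hMCR-1 (2×10^4 per tube) or hMCR-4 (4×10^3 per tube), suspended in PBS, 10% calf serum, 1 mM CaCl2.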

MCR-1 = target: T2, MCR-1 (Homo sapiens, UniProt Q01726); assay: Melanocortin receptor binding assay, competition with 125I-HP 467, HEK 293 cells expressing hMCR-1; conditions: for IC50: read-out: MC-1 IC50
T2 construct: expressed in transfected cells; host or cells: HEK 293
T2 sequence (Q01726 whole entry): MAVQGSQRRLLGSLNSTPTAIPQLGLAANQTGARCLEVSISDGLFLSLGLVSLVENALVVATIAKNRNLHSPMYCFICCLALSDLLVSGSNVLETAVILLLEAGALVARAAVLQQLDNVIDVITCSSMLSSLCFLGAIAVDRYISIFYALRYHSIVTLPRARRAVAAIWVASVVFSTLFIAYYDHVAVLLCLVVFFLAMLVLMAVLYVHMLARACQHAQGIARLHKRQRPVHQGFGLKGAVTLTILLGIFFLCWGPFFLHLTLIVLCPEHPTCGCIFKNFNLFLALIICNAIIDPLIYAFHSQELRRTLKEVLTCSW
In short: as §1

[1] = TRG 2408 and TRG 2409 libraries, inhibition of 125I-HP 467 binding
[2] = inhibition of binding of 125I-HP 467, HEK 293 cells expressing MCR-4, TRG 2414 library
[3] = inhibition of binding of 125I-HP 467, HEK 293 cells expressing MCR-1, TRG 2414 library
[4] = TRG 2414 library, inhibition of binding of 125I-HP 467, HEK 293 cells expressing MCR-4
[5] = TRG 2414 library, inhibition of binding of 125I-HP 467, HEK 293 cells expressing MCR-1
[6] = inhibition of binding of 125I-HP 467, HEK 293 cells expressing MCR-4
[7] = inhibition of binding of 125I-HP 467, HEK 293 cells expressing MCR-1
[8] = competition with 125I-HP 467, HEK 293 cells expressing MCR-4
[9] = competition with 125I-HP 467, HEK 293 cells expressing MCR-1
[10] = TRG 2406 and TRG 2407 libraries, inhibition of binding of 125I-HP 467

SMILES: CCNc1ccc(C2C(CNC3CCCCC3)c3ccccc3CN2CCCCC(CN)NCCNC)cc1 (centres unmarked) [TRG 2408-8]
IC50 (MCR-4; [1]): 43.3 µM
IC50 (MCR-1; [1]): 2.31 µM

SMILES: COc1ccccc1CCNCC1c2ccccc2CN(CCCCC(CN)NCC(C)c2ccc(CC(C)C)cc2)C1c1ccccc1Br (centres unmarked) [Cmpd 212]
IC50 (MCR-4; [4]): 16.6 µM
IC50 (MCR-1; [5]): 18.3 µM

SMILES: COc1ccc(CCNCC2c3ccccc3CN(CCCCC(CN)NCc3ccc(-c4ccccc4)cc3)C2c2cc(C(F)(F)F)cc(C(F)(F)F)c2)cc1OC (centres unmarked) [TRG 2421-20]
IC50 (MCR-4; [6]): 1.97 µM
IC50 (MCR-1; [7]): 4.22 µM

SMILES: CCCOc1ccc(C2C(CNCc3ccccc3C(F)(F)F)c3ccccc3CN2CCCCC(CN)NCC(C)c2ccc(CC(C)C)cc2)cc1 (centres unmarked) [TRG 2414-164]
MC-4 IC50 (MCR-4; [2]): no fit
MC-1 IC50 (MCR-1; [3]): no fit

SMILES: COc1ccccc1CCNCC1c2ccccc2CN(CCCCC(CN)NCC(C)c2ccc(CC(C)C)cc2)C1c1cc(C(F)(F)F)cc(C(F)(F)F)c1 (mixture of isomers) [TRG 2414-52]
IC50 (MCR-4; [2]): 17.5 µM
IC50 (MCR-1; [3]): 22.1 µM

SMILES: NCC(N)CCCCN1Cc2ccccc2C(CNC2CCCCC2)C1c1cc(C(F)(F)F)cc(C(F)(F)F)c1 (centres unmarked) [TRG 2414-77]
IC50 (MCR-4; [2]): 0.63 µM
IC50 (MCR-1; [3]): 3.86 µM

SMILES: CCNc1ccc(C2C(CNCCc3ccccc3)c3ccccc3CN2CCCC(CN)NCc2ccccc2CNCc2ccccc2)cc1 (centres unmarked) [TRG 2420-14]
IC50 (MCR-4; [6]): 0.29 µM
IC50 (MCR-1; [7]): 0.135 µM

SMILES: CCCOc1ccc(C2C(CN)c3ccccc3CN2CCCCC(CN)NCC)cc1 (centres unmarked) [TRG 2415-17]
IC50 (MCR-4; [6]): 9.35 µM
IC50 (MCR-1; [7]): 0.581 µM

SMILES: NCC(CCCCN1Cc2ccccc2C(CNC2CCCCCC2)C1c1cc(C(F)(F)F)cc(C(F)(F)F)c1)NCCc1ccccc1 (centres unmarked) [TRG 2414-74]
IC50 (MCR-4; [2]): 4.57 µM
IC50 (MCR-1; [3]): 11.2 µM

SMILES: COc1ccc(CNCC2c3ccccc3CN(CCCCC(CN)NCc3ccccc3)C2c2cccc(Oc3ccccc3)c2)cc1 (mixture of isomers) [TRG 2414-103]
IC50 (MCR-4; [2]): 7.48 µM
IC50 (MCR-1; [3]): 8.13 µM

SMILES: NCC(CCCCN1Cc2ccccc2C(CNCCc2cccc(Cl)c2)C1c1ccc(Oc2ccccc2)cc1)NCCc1ccccc1 (centres unmarked) [TRG 2414-134]
MC-4 IC50 (MCR-4; [2]): no fit
IC50 (MCR-1; [3]): 40.2 µM

SMILES: NCC(CCCCN1Cc2ccccc2C(CNC2CCCCC2)C1c1cccc(Oc2ccccc2)c1)NCCc1ccccc1 (mixture of isomers) [TRG 2414-118]
IC50 (MCR-4; [2]): 4.49 µM
IC50 (MCR-1; [3]): 8.44 µM

SMILES: COc1ccc(CCNCC2c3ccccc3CN(CCCCC(CN)NCc3ccc(-c4ccccc4)cc3)C2c2cc(C(F)(F)F)cc(C(F)(F)F)c2)cc1 (centres unmarked) [TRG 2421-15]
IC50 (MCR-4; [6]): 7.6 µM
IC50 (MCR-1; [7]): 7.81 µM

SMILES: NCC(N)CCCCN1Cc2ccccc2C(CNC2CCCCCC2)C1c1cc(C(F)(F)F)cc(C(F)(F)F)c1 (centres unmarked) [TRG 2414-73]
IC50 (MCR-4; [2]): 1.01 µM
IC50 (MCR-1; [3]): 5.77 µM

SMILES: COc1ccc(CNCC2c3ccccc3CN(CCCCC(CN)NCC(C)c3ccc(CC(C)C)cc3)C2c2ccc(Oc3ccccc3)cc2)cc1 (centres unmarked) [TRG 2414-144]
MC-4 IC50 (MCR-4; [2]): no fit
MC-1 IC50 (MCR-1; [3]): no fit

Other lines, results leading:

IC50 (MCR-4; [1]): 20.5 µM
IC50 (MCR-1; [1]): 0.82 µM
SMILES: NCCNC(CN)CCCCN1Cc2ccccc2C(CNC2CCCCC2)C1c1ccc(-c2ccccc2)cc1 (centres unmarked) [TRG 2408-23]

IC50 (MCR-4; [2]): 8.5 µM
IC50 (MCR-1; [3]): 1.63 µM
SMILES: COc1ccc(CCNCC2c3ccccc3CN(CCCCC(CN)NCc3ccccc3)C2c2ccc(Oc3ccccc3)cc2)cc1 (centres unmarked) [TRG 2414-147]

IC50 (MCR-4; [1]): 5.06 µM
IC50 (MCR-1; [1]): 1.27 µM
SMILES: CNCCNC(CN)CCCCN1Cc2ccccc2C(CNC2CCCCC2)C1c1ccc(Cl)cc1Cl (centres unmarked) [TRG 2408-44]

MC-4 IC50 (MCR-4; [2]): no fit
MC-1 IC50 (MCR-1; [3]): no fit
SMILES: CC(C)Cc1ccc(C(C)CN[C@H](CN)CCCCN2Cc3ccccc3C(CNCc3ccccc3C(F)(F)F)C2c2cccc(Oc3ccccc3)c2)cc1 (some centres unmarked) [TRG 2414-84]

IC50 (MCR-4; [8]): 1.45 µM
IC50 (MCR-1; [9]): 0.2 µM
SMILES: CCCCNc1ccc(C2C(CN)c3ccccc3CN2CCCCC(CN)NCCN)cc1 (centres unmarked) [TRG 2411-112]

IC50 (MCR-4; [1]): 10.4 µM
IC50 (MCR-1; [1]): 8.79 µM
SMILES: NCC(CCN1Cc2ccccc2C(CNC2CCCCC2)C1c1ccc(-c2ccccc2)cc1)NCCc1ccccc1 (centres unmarked) [TRG 2408-112]

IC50 (MCR-4; [10]): 4.94 µM
IC50 (MCR-1; [10]): 4.74 µM
SMILES: CNC(CN)CCCCN1Cc2ccccc2C(CO)C1c1ccc(Cl)cc1Cl (centres unmarked) [TRG 2407-40]

IC50 (MCR-4; [4]): 5.35 µM
IC50 (MCR-1; [5]): 2.86 µM
SMILES: NCC(CCCCN1Cc2ccccc2C(CNC2CCCCCC2)C1c1ccccc1Br)NCc1ccccc1 (centres unmarked) [Cmpd 235]

IC50 (MCR-4; [8]): 1.27 µM
IC50 (MCR-1; [9]): 0.13 µM
SMILES: NCC(CCCCN1Cc2ccccc2C(CNCCc2ccccc2)C1c1ccc(-c2ccccc2)cc1)N1CCCC1 (centres unmarked) [TRG 2411-9]

IC50 (MCR-4; [4]): 6.43 µM
IC50 (MCR-1; [5]): 7.67 µM
SMILES: CCOc1ccccc1CNCC1c2ccccc2CN(CCCCC(CN)NCc2ccccc2)C1c1ccccc1Br (centres unmarked) [Cmpd 207]
